Reference: US6472391B2, “Nitrogen-containing heterocyclic compounds” (Millennium Pharmaceuticals, Inc., priority 1996, dated 2002)
Where a name gives a salt, the structure may show the parent alone.

| Compound | melting point [°C] |
| --- | --- |
| COc1cc2ncnc(N3CCN(C(=S)Nc4ccc5ccc6cccc7ccc4c5c67)CC3)c2cc1OC | 140 to 145 |
| COc1cc2ncnc(N3CCN(C(=O)Nc4ccc(CNCc5ccncc5)cc4)CC3)c2cc1OC.Cl.Cl.Cl | 182 to 185 |
| COc1cc2ncnc(N3CCN(C(=O)Nc4ccc([N+](=O)[O-])c([N+](=O)[O-])c4)CC3)c2cc1OC | 273 to 274 |
| Cl.Cl.S=C(NCc1cccnc1)N1CCN(c2ncnc3cccc(Cl)c23)CC1 | 150 to 152 |
| Cc1ccc2c(N3CCN(C(=S)NCc4cccnc4)CC3)ncnc2c1.Cl.Cl | 180 to 183 |
| COc1ccc2c(N3CCN(C(=S)NCc4cccnc4)CC3)ncnc2c1OC.Cl | 208 to 209 |
| Cl.Cl.S=C(NCc1cccnc1)N1CCN(c2ccnc3ccccc23)CC1 | 183 to 185 |
| Cl.Cl.S=C(NCc1cccnc1)N1CCN(c2ccnc3ccc(Cl)cc23)CC1 | 162 to 164 |
| Cl.Cl.S=C(NCc1cccnc1)N1CCN(c2ccnc3cc(Cl)ccc23)CC1 | 170 to 173 |
| COc1cc2ccnc(N3CCN(C(=S)NCc4cccnc4)CC3)c2cc1OC.Cl.Cl | 195 to 197 |
| COc1cc2ncnc(N3CCCN(C(=S)NCc4cccnc4)CC3)c2cc1OC.Cl.Cl | 177 to 183 |
| COc1cc(OC)c2ncnc(N3CCN(C(=S)NCc4cccnc4)CC3)c2c1 (as salt: hydrochloride) [Compound 382, 4-(6,8-Dimethoxy-4-quinazolinyl)-N-(3-picolyl)-1-piperazinethiocarboxamide] | 164 to 167 |
| COc1cc2ncnc(N3CCN(C(=S)Nc4ccc(C(=O)NC5CCOC5=O)cc4)CC3)c2cc1OC (racemic) [Compound 92, (dl)-N-[4-(2,3,4,5-Tetrahydro-2-oxofuran-3-ylcarbamoyl)phenyl]-4-(6,7-dimethoxy-4-quinazolinyl)-1-piperazinethiocarboxamide] | 174 to 178 |
| COc1cc2ncnc(N3CCN(C(=O)Nc4ccccc4)CC3)c2cc1OC [Compound 1, 4-(6,7-Dimethoxy-4-quinazolinyl)-N-phenyl-1-piperazinecarboxamide] | 121 to 123 |
| COc1cc2ncnc(N3CCN(C(=S)Nc4ccccc4)CC3)c2cc1OC [Compound 2, 4-(6,7-Dimethoxy-4-quinazolinyl)-N-phenyl-1-piperazinethiocarboxamide] | 230 to 232 |
| COc1cc2ncnc(N3CCN(C(=O)NCc4ccccc4)CC3)c2cc1OC [Compound 3, N-Benzyl-4-(6,7-dimethoxy-4-quinazolinyl)-1-piperazinecarboxamide] | 167 to 168 |
| COc1cc2ncnc(N3CCN(C(=O)NC(=O)c4ccccc4)CC3)c2cc1OC [Compound 4, N-Benzoyl-4-(6,7-dimethoxy-4-quinazolinyl)-1-piperazinecarboxamide] | 122 to 124 |

| Compound | melting point [°C] |
| --- | --- |
| COc1cc2ncnc(N3CCN(C(=O)NS(=O)(=O)c4ccccc4)CC3)c2cc1OC [Compound 5, N-Benzenesulfonyl-4-(6,7-dimethoxy-4-quinazolinyl)-1-piperazinecarboxamide] | 98 to 100 |
| COc1cc2ncnc(N3CCN(C(=S)NCCc4ccccc4)CC3)c2cc1OC [Compound 6, 4-(6,7-Dimethoxy-4-quinazolinyl)-N-(2-phenylethyl)-1-piperazinethiocarboxamide] | 76 to 80 |
| COc1cc2ncnc(N3CCN(C(=S)NCCCCc4ccccc4)CC3)c2cc1OC [Compound 7, 4-(6,7-Dimethoxy-4-quinazolinyl)-N-(4-phenylbutyl)-1-piperazinethiocarboxamide] | 112 to 114 |
| COc1cc2ncnc(N3CCN(C(=O)Nc4cccc5ccccc45)CC3)c2cc1OC [Compound 8, 4-(6,7-Dimethoxy-4-quinazolinyl)-N-(1-naphthyl)-1-piperazinecarboxamide] | 254 to 256 |
| COc1cc2ncnc(N3CCN(C(=S)NCC(c4ccccc4)c4ccccc4)CC3)c2cc1OC [Compound 11, 4-(6,7-Dimethoxy-4-quinazolinyl)-N-(2,2-diphenylethyl)-1-piperazinethiocarboxamide] | 93 to 94 |
| COc1cc2ncnc(N3CCN(C(=O)NC4CCCCC4)CC3)c2cc1OC [Compound 13, N-Cyclohexyl-4-(6,7-dimethoxy-4-quinazolinyl)-1-piperazinecarboxamide] | 208 to 210 |
| C#CCNC(=S)N1CCN(c2ncnc3cc(OC)c(OC)cc23)CC1 [Compound 16, 4-(6,7-Dimethoxy-4-quinazolinyl)-N-(2-propynyl)-1-piperazinethiocarboxamide] | 158 to 160 |
| COc1cc2ncnc(N3CCN(C(=O)Nc4ccc(C)cc4)CC3)c2cc1OC [Compound 17, 4-(6,7-Dimethoxy-4-quinazolinyl)-N-(4-tolyl)-1-piperazinecarboxamide] | 225 to 228 |
| CCc1ccc(NC(=O)N2CCN(c3ncnc4cc(OC)c(OC)cc34)CC2)cc1 [Compound 18, N-(4-Ethylphenyl)-4-(6,7-Dimethoxy-4-quinazolinyl)-1-piperazinecarboxamide] | 251 to 252 |
| CCCCc1ccc(NC(=O)N2CCN(c3ncnc4cc(OC)c(OC)cc34)CC2)cc1 [Compound 20, N-(4-Butylphenyl)-4-(6,7-dimethoxy-4-quinazolinyl)-1-piperazinecarboxamide] | 216 to 222 |
| CCCCc1ccc(NC(=S)N2CCN(c3ncnc4cc(OC)c(OC)cc34)CC2)cc1 [Compound 21, N-(4-Butylphenyl)-4-(6,7-dimethoxy-4-quinazolinyl)-1-piperazinethiocarboxamide] | 171 to 173 |
| COc1cc2ncnc(N3CCN(C(=S)Nc4ccc(C(C)(C)C)cc4)CC3)c2cc1OC [Compound 22, N-(4-tert-Butylphenyl)-4-(6,7-dimethoxy-4-quinazolinyl)-1-piperazinethiocarboxamide] | 221 to 224 |
| COc1cc2ncnc(N3CCN(C(=O)Nc4ccc(C(F)(F)F)cc4)CC3)c2cc1OC [Compound 23, 4-(6,7-Dimethoxy-4-quinazolinyl)-N-[4-(trifluoromethyl)phenyl]-1-piperazinecarboxamide] | 227 to 230 |
| C=Cc1ccc(NC(=S)N2CCN(c3ncnc4cc(OC)c(OC)cc34)CC2)cc1 [Compound 24, 4-(6,7-Dimethoxy-4-quinazolinyl)-N-(4-vinylphenyl)-1-piperazinethiocarboxamide] | 110 to 111 |
| COc1cc2ncnc(N3CCN(C(=O)Nc4ccc(C5CCCCC5)cc4)CC3)c2cc1OC [Compound 26, N-(4-Cyclohexylphenyl)-4-(6,7-dimethoxy-4-quinazolinyl)-1-piperazinecarboxamide] | 238 to 241 |
| COc1cc2ncnc(N3CCN(C(=O)Nc4cc(C)cc(C)c4)CC3)c2cc1OC [Compound 29, 4-(6,7-Dimethoxy-4-quinazolinyl)-N-(3,5-dimethylphenyl)-1-piperazinecarboxamide] | 223 to 226 |
| COc1cc2ncnc(N3CCN(C(=O)Nc4ccc(C)c(C)c4)CC3)c2cc1OC [Compound 30, 4-(6,7-Dimethoxy-4-quinazolinyl)-N-(3,4-dimethylphenyl)-1-piperazinecarboxamide] | 202 to 203 |
